For the assay, the target named is T1, THP-1 cell NLRP3 (Homo sapiens, UniProt Q96P20).
T1 construct: endogenous in cells; host or cells: THP-1 cells, PMA-differentiated, stimulated with LPS and nigericin
T1 sequence (Q96P20 whole entry): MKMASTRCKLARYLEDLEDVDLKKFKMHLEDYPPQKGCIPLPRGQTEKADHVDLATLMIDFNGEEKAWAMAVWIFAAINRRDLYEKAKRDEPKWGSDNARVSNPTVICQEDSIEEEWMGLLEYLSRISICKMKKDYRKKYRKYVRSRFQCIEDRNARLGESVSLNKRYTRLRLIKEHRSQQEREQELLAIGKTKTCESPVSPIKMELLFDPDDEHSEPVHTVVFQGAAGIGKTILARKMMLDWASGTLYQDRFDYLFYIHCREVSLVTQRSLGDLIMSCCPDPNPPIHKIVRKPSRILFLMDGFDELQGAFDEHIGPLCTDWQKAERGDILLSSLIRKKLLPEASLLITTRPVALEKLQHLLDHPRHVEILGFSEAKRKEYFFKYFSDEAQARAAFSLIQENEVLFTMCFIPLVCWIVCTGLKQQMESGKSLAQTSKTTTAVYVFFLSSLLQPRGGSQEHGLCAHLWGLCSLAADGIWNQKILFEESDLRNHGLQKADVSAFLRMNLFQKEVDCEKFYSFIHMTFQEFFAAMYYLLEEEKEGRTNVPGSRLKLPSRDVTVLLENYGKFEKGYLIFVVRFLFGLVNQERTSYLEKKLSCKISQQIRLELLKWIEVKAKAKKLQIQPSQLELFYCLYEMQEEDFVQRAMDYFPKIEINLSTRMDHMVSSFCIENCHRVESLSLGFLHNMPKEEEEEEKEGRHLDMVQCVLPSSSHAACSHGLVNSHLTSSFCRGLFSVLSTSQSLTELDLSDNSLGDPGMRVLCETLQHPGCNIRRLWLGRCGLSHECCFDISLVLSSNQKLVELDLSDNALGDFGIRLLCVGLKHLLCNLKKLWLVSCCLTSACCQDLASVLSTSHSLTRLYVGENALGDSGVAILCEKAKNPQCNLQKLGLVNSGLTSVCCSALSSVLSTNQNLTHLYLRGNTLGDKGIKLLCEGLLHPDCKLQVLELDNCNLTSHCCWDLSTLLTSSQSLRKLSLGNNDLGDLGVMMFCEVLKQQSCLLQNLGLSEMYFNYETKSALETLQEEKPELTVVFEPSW
Put plainly: Inhibitory activity against cell NLRP3 inflammasomes in THP-1 cells (LPS + nigericin, ELISA of supernatant). Format: cell-based. The conditions noted are these: PMA-differentiated THP-1 cells, LPS 500 ng/mL 3 h, compound 1 h, nigericin 30 min; human IL-10 (so in the source) in supernatant by ELISA. How it is done: Experimental Example 1: Assay for Inhibitory Activity of Compounds Disclosed Herein Against Cell NLRP3 Inflammasomes
Test substances: The compounds of the present disclosure, prepared according to the methods described in the examples.
THP-1 is an immortalized human […] cell line.
Instrument: microplate reader (made by PE)
Assay Method: 1. THP-1 cells were cultured in 1640 complete medium (500 mL of 1640+56 mL of FBS+560 μL of 1000×P/S+2 μL of mercaptoethanol), and cells at passages 3-20 were used.
2. Culture plate coating: 100 μL of polylysine solution was added to a 96-well cell culture plate. After 30 min of incubation at 37° C., the solution was discarded, and the plate was washed with PBS twice for later use.
3. Induction of THP-1 differentiation: THP-1 cells were resuspended in an appropriate amount of complete medium containing 10 ng/mL PMA to form a cell suspension with a density of 5×10^5 cells/mL. The suspension was added to the 96-well plate at 100 μL/well, and the plate was incubated overnight in a 37° C. carbon dioxide cell incubator for 16 h.
4. Stimulation of THP-1: • a. Serum-free THP-1 culture medium containing LPS was added, with the final concentration being 500 ng/mL. The plate was incubated in a 37° C. carbon dioxide cell incubator for 3 h. • b. Mother liquors of the compounds to be tested with gradient concentrations were prepared with DMSO, added to the cells, and well mixed. Dilution was finally performed in a 1:1000 ratio. The plate was incubated in a 37° C. carbon dioxide cell incubator for 1 h. • c. Nigericin was added to each well, with the final concentration being […]. The plate was incubated in a carbon dioxide cell incubator at 37° C. for 30 min. • d. The medium in the wells was transferred to a new culture plate, and after 5 min of centrifugation at 3000 rpm, the supernatant was transferred to a new 96-well plate. • e. The content of human […] in the collected cell culture supernatant samples was determined with a commercial ELISA kit by following the instructions.
(In general: ELISA stands for enzyme-linked immunosorbent assay.)
With `CC#Cc1ccc(-c2nnc(N[C@@H]3CCCN(CCO)C3)c(=O)n2C)c(O)c1` [Compound 33, (R)-3-(2-hydroxy-4-(prop-1-yn-1-yl)phenyl)-6-((1-(2-hydroxyethyl)piperidin-3-yl)amino)-4-methyl-1,2,4-triazin-5(4H)-one], the half-maximal inhibitory concentration (IC50) (commonly the midpoint of a concentration-inhibition curve) was determined as 11.5 nM.
`CC#Cc1ccc(-c2nnc(N[C@@H]3CCCN(CCCO)C3)cc2C)c(O)c1` [Compound 35, (R)-2-(6-((1-(3-hydroxypropyl)piperidin-3-yl)amino)-4-methylpyridazin-3-yl)-5-(prop-1-yn-1-yl)phenol]: the IC50 worked out at 3.3 nM.
Under `CC#Cc1ccc(-c2nnc(N[C@@H]3CCCN(CC(C)(C)O)C3)cc2C)c(O)c1` [Compound 36, (R)-2-(6-((1-(2-hydroxy-2-methylpropyl)piperidin-3-yl)amino)-4-methylpyridazin-3-yl)-5-(prop-1-yn-1-yl)phenol] stands 12.7 nM.
Under `CC#Cc1ccc(-c2nnc(N[C@@H]3CCCN(C(C)CO)C3)cc2C)c(O)c1` (stereo partly drawn) [Compound 37, 2-(6-(((3R)-1-(1-hydroxypropan-2-yl)piperidin-3-yl)amino)-4-methylpyridazin-3-yl)-5-(prop-1-yn-1-yl)phenol] stands 0.8 nM.
Turning to `Cc1cc(N[C@@H]2CCCN(C)C2)nnc1-c1ccc(C=C(F)F)cc1O` [Compound 39, (R)-5-(2,2-difluorovinyl)-2-(4-methyl-6-((1-methylpiperidin-3-yl)amino)pyridazin-3-yl) phenol], the concentration for half-maximal inhibition (IC50) is 0.3 nM.
Consider `CC#Cc1ccc(-c2nnc(N[C@@H]3CCCN(C)C3)n3nccc23)c(O)c1` [Compound 40, (R)-2-(7-((1-methylpiperidin-3-yl)amino)pyrazolo[1,5-d][1,2,4]triazin-4-yl)-5-(prop-1-yn-1-yl)phenol], for which the 50% inhibitory concentration (IC50) is 12.8 nM.
Consider `C#Cc1cc(C)c(-c2ccc(N[C@@H]3CCCN(C)C3)nn2)c(O)c1` [Compound 41, (R)-5-ethynyl-3-methyl-2-(6-((1-methylpiperidin-3-yl)amino)pyridazin-3-yl)phenol], for which the IC50 turned out to be 0.3 nM.
As to `[2H]C([2H])([2H])N1CCC[C@@H](Nc2nnc(-c3ccc(C#C)cc3O)c(C3CC3)n2)C1` [Compound 87, (R)-2-(5-cyclopropyl-3-((1-(methyl-d3)piperidin-3-yl)amino)-1,2,4-triazin-6-yl)-5-ethynylphenol], the IC50 was 0.7 nM.
As to `C#Cc1ccc(-c2nnc(N[C@@H]3CCCN(CC)C3)nc2C)c(O)c1` [Compound 91, (R)-2-(3-((1-ethylpiperidin-3-yl)amino)-5-methyl-1,2,4-triazin-6-yl)-5-ethynylphenol], the IC50 turned out to be 0.2 nM.
With `C#Cc1ccc(-c2nnc(N[C@@H]3CCCN(CC)C3)nc2C2CC2)c(O)c1` [Compound 92, (R)-2-(5-cyclopropyl-3-((1-ethylpiperidin-3-yl)amino)-1,2,4-triazin-6-yl)-5-ethynylphenol], the IC50 was determined as 0.5 nM.
Under `C#Cc1ccc(-c2nnc(N[C@@H]3CCCN(C4CC4)C3)cc2C)c(O)c1` [Compound 94, (R)-2-(6-((1-cyclopropylpiperidin-3-yl)amino)-4-methylpyridazin-3-yl)-5-ethynylphenol] stands 0.3 nM; under `C#Cc1ccc(-c2nnc(N[C@@H]3CCCN(C4CC4)C3)cc2C2CC2)c(O)c1` [Compound 95, (R)-2-(4-cyclopropyl-6-((1-cyclopropylpiperidin-3-yl)amino)pyridazin-3-yl)-5-ethynylphenol], 0.4 nM; under `C#Cc1ccc(-c2nnc(N[C@@H]3CCCN(C4CC4)C3)nc2C)c(O)c1` [Compound 96, (R)-2-(3-((1-cyclopropylpiperidin-3-yl)amino)-5-methyl-1,2,4-triazin-6-yl)-5-ethynylphenol], 0.5 nM.
With `C#Cc1ccc(-c2nnc(N[C@@H]3CCCN(C4CC4)C3)nc2C2CC2)c(O)c1` [Compound 97, (R)-2-(5-cyclopropyl-3-((1-cyclopropylpiperidin-3-yl)amino)-1,2,4-triazin-6-yl)-5-ethynylphenol] the figure was 1 nM; with `C#Cc1ccc(-c2nnc(N[C@@H]3CCCN(C4CC4)C3)c(=O)n2C)c(O)c1` [Compound 98, (R)-6-((1-cyclopropylpiperidin-3-yl)amino)-3-(4-ethynyl-2-hydroxyphenyl)-4-methyl-1,2,4-triazin-5(4H)-one], 5 nM.
Take `C#Cc1ccc(-c2nnc(N[C@@H]3CCCN(CC)C3)c(=O)n2C2CC2)c(O)c1` [Compound 109, (R)-4-cyclopropyl-6-((1-ethylpiperidin-3-yl)amino)-3-(4-ethynyl-2-hydroxyphenyl)-1,2,4-triazin-5(4H)-one]: the IC50 was determined as 16 nM.
As for `Cc1cc(N[C@@H]2CCCN(C)C2)nnc1-c1ccc(C#CC(F)(F)F)cc1O` [Compound 111, (R)-2-(4-methyl-6-((1-methylpiperidin-3-yl)amino)pyridazin-3-yl)-5-(3,3,3-trifluoroprop-1-yn-1-yl)phenol], the half-inhibitory concentration (IC50) turned out to be 1.1 nM.
For the compound `C#Cc1ccc(-c2nnc(N[C@@H]3CCCN(C)C3)c(=O)n2C(C)C)c(O)c1` [Compound 112, (R)-3-(4-Ethynyl-2-hydroxyphenyl)-4-isopropyl-6-((1-methylpiperidin-3-yl)amino)-1,2,4-triazin-5(4H)-one], the IC50 is 12 nM.
With `C#Cc1ccc(-c2nnc(N[C@@H]3CCCNC3)cc2C)c(O)c1` [Compound 139, (R)-5-ethynyl-2-(4-methyl-6-(piperidin-3-ylamino)pyridazin-3-yl)phenol] the figure was 1.1 nM; with `C#Cc1ccc(-c2nnc(N[C@@H]3CCCNC3)cc2C(F)(F)F)c(O)c1` [Compound 161, (R)-5-ethynyl-2-(6-(piperidin-3-ylamino)-4-trifluoromethylpyridazin-3-yl)phenol], 9.9 nM; with `C#Cc1ccc(-c2nnc(N[C@@H]3CCCN(CCO)C3)cc2C(F)(F)F)c(O)c1` [Compound 163, (R)-5-ethynyl-2-(6-((1-(2-hydroxyethyl)piperidin-3-yl)amino)-4-trifluoromethylpyridazin-3-yl)phenol], 1.1 nM.
In the case of `C#Cc1ccc(-c2nnc(N[C@@H]3CCCN(CCOC)C3)cc2C2CC2)c(O)c1` [Compound 240, (R)-2-(4-cyclopropyl-6-((1-(2-methoxyethyl)piperidin-3-yl)amino)pyridazin-3-yl)-5-ethynylphenol], the IC50 stood at 1.3 nM.
